Source: PMC3184404 (The FEBS journal, 2011)
Read-outs that look alike come from different tables or passages of the source.

Experiments:
[1] = molecular target: T1, Bovine liver glutamate dehydrogenase (Bos taurus, UniProt P00366); conditions: cited from earlier work
[2] = molecular target: T1, Bovine liver glutamate dehydrogenase; test: Fluorescence titrations of reduced cofactor binding; conditions: NADPH, pH 8.0
[3] = molecular target: T1, Bovine liver glutamate dehydrogenase; test: Thermal stability by differential scanning calorimetry; assay type: binding
[4] = molecular target: T1, Bovine liver glutamate dehydrogenase; conditions: plus zinc
immobilized trypsin = test: Control experiments with azocasein on immobilized protease; assay type: biochemical; conditions: azocasein as substrate, zinc at the concentrations used
[5] = molecular target: T1, Bovine liver glutamate dehydrogenase; test: Initial rate kinetics of oxidative deamination, zinc inhibition; assay type: biochemical
[6] = molecular target: T1, Bovine liver glutamate dehydrogenase; conditions: pH 7.0, 1mM NAD^+
[7] = enzyme + 200mM norvaline, pH 7.0
[8] = enzyme + 20mM glutamate + zinc, pH 7.0
[9] = enzyme + 200mM norvaline + zinc, pH 7.0
[10] = enzyme + zinc, 0.1 M phosphate pH 7.0
[11] = control experiments, data not shown

T1 sequence (P00366 58-558): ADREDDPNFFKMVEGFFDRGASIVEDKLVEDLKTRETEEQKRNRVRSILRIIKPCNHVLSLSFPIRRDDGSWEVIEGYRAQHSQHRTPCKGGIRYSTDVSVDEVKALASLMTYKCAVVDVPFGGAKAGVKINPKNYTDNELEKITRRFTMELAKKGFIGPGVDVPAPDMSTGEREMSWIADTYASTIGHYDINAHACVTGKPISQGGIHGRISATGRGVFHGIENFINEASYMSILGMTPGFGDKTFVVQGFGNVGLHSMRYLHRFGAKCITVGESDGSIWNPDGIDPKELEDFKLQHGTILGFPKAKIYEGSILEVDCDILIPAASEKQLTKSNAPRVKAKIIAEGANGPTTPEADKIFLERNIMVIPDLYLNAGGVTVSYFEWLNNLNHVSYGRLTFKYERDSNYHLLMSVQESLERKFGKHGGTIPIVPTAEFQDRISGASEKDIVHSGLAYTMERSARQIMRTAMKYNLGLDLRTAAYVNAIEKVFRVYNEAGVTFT

[Cl-].[Cl-].[Cl-].[Eu+3] [Eu^3+, europium (III) chloride]
Effect on the ability of zinc to inhibit the enzyme [1]: reversed
Effect on the activity of the enzyme [1]: no effect

NC(=O)C1=CN([C@@H]2O[C@H](COP(=O)(O)OP(=O)(O)OC[C@H]3O[C@@H](n4cnc5c(N)ncnc54)[C@H](OP(=O)(O)O)[C@@H]3O)[C@@H](O)[C@H]2O)C=CC1 [NADPH, Nicotinamide Adenine Dinucleotide Phosphate]
Kd ([2]; + 100 μM zinc): 1.04 µM
Kd ([2]; +20mM glutamate + 100 μM zinc): 1.72 µM
Kd ([2]; +20mM glutamate): 2.4 µM
Kd ([2]; +200mM norvaline + 100 μM zinc): 9.27 µM
Kd ([2]; +200mM norvaline): 7.35 µM
Kd ([2]; no additions): 6.33 µM

CCC[C@H](N)C(=O)O [Norvaline, norvaline]
TM [3, 7]: 67.8 °C
ΔH [3, 7]: 188.7
ΔS [3, 7]: 0.554

CC(=O)[O-].CC(=O)[O-].[Zn+2] [Zinc, zinc acetate]
Fragment 3446 (residues 114–146) Peak Height relative to ACTH standard ([4]; 5 Mins, pH 8.0): 0.52
Fragment 4089 (residues 1–35) Peak Height relative to ACTH standard ([4]; 5 Mins, pH 8.0): 0
Fragment 34,645 (residues 144–459) Peak Height relative to Native ([4]; 5 Mins, pH 8.0): 0.17
Fragment 3446 (residues 114–146) Peak Height relative to ACTH standard ([4]; 10 Mins, pH 8.0): 0.54
Fragment 4089 (residues 1–35) Peak Height relative to ACTH standard ([4]; 10 Mins, pH 8.0): 0.16
Fragment 34,645 (residues 144–459) Peak Height relative to Native ([4]; 10 Mins, pH 8.0): 0.18
Fragment 3446 (residues 114–146) Peak Height relative to ACTH standard ([4]; 15 Mins, pH 8.0): 0.75
Fragment 4089 (residues 1–35) Peak Height relative to ACTH standard ([4]; 15 Mins, pH 8.0): 0.68
Fragment 34,645 (residues 144–459) Peak Height relative to Native ([4]; 15 Mins, pH 8.0): 0.86
Fragment 3446 (residues 114–146) Peak Height relative to ACTH standard ([4]; Time = 0, pH 8.0): 0
Fragment 4089 (residues 1–35) Peak Height relative to ACTH standard ([4]; Time = 0, pH 8.0): 0
Fragment 34,645 (residues 144–459) Peak Height relative to Native ([4]; Time = 0, pH 8.0): 0
Effect on the immobilized protease (immobilized trypsin): did not effect
TM [3, 8]: 59.3 °C
ΔH [3, 8]: 126.4
ΔS [3, 8]: 0.381
TM [3, 9]: 68.1 °C
ΔH [3, 9]: 179.9
ΔS [3, 9]: 0.528
TM [3, 10]: 59.2 °C
ΔH [3, 10]: 128.9
ΔS [3, 10]: 0.388
Inhibition at saturating concentrations of substrates [5]: potent inhibitor
Inhibition of oxidative deamination with glutamate as substrate ([5]; pH 8): effective inhibition
Inhibition of oxidative deamination with norvaline as substrate ([5]; pH 8): no significant inhibition
Pre-Steady State Burst Amplitude ([6]; 50mM glutamate + 100μM zinc): 1.053 340F450
Pre-Steady State Burst Rate ([6]; 50mM glutamate + 100μM zinc): 0.858 340F450/sec
Steady State Rate ([6]; 50mM glutamate + 100μM zinc): 0.187 340F450/sec
Pre-Steady State Burst Amplitude ([6]; 50mM glutamate + 200μM zinc): 0.771 340F450
Pre-Steady State Burst Rate ([6]; 50mM glutamate + 200μM zinc): 0.972 340F450/sec
Steady State Rate ([6]; 50mM glutamate + 200μM zinc): 0.158 340F450/sec

[Mg+2] [magnesium]
Effect on the activity of the enzyme [5, 11]: no effect
Effect on the inhibition by zinc [5, 11]: no effect
